Data reported in publication PMC9533837 (Antiviral Research, 2003).
≈ marks a conversion by molar mass, not a printed value. Read-outs that look alike come from different tables or passages of the source.

Key:
[1] = system: MPX Zaire (V79-1-005-Scab); assay: organism not typed; assay type: cell-based, monkeypox
VAC = system: VAC; set-up: species or system mice; details: mouse, in vivo
[2] = system: VAR-BSH (1975 Bangladesh isolate of VAR major); assay: organism not typed; assay type: cell-based, variola major
[3] = system: MPX Zaire (V79-1-005-Scab); assay: organism not typed; assay type: cell-based, monkeypox; remark: listed apart in the source
CPX = system: CPX; set-up: species or system mice; details: mouse, in vivo
[4] = system: VAR-YAM (1946 Japan Yamada isolate of VAR major); assay: organism not typed; assay type: cell-based, variola major
VAC Copenhagen [5] = assay: microbe, parasite or virus in culture; assay type: cell-based, vaccinia virus
[6] = system: VAR-BSH (1975 Bangladesh isolate of VAR major); assay: organism not typed; assay type: cell-based, variola major; remark: listed apart in the source
[7] = system: VAR-YAM (1946 Japan Yamada isolate of VAR major); assay: organism not typed; assay type: cell-based, variola major; remark: listed apart in the source
[8] = system: VAR-GAR (1966 Brazil Garcia isolate of VAR minor); assay: organism not typed; assay type: cell-based, variola minor
CPX Brighton [9] = assay: organism not typed; assay type: cell-based, cowpox
VAC Copenhagen [10] = assay: microbe, parasite or virus in culture; assay type: cell-based, vaccinia virus; remark: listed apart in the source
[11] = system: VAR-GAR (1966 Brazil Garcia isolate of VAR minor); assay: organism not typed; assay type: cell-based, variola minor; remark: listed apart in the source
CPX Brighton [12] = assay: organism not typed; assay type: cell-based, cowpox; remark: listed apart in the source

Compound | Therapeutic index (TI) MPX Vero [1] | protective effect on VAC-infected mice (VAC) | Therapeutic index (TI) VAR-BSH Vero [2] | Therapeutic index (TI) MPX LLC-MK2 [3] | protective effect on CPX-infected mice (CPX) | Therapeutic index (TI) VAR-YAM LLC-MK2 [4] | Therapeutic index (TI) VAC LLC-MK2 (VAC Copenhagen [5]) | Therapeutic index (TI) VAR-BSH LLC-MK2 [6] | Therapeutic index (TI) VAR-YAM Vero [7] | Therapeutic index (TI) VAR-GAR LLC-MK2 [8] | Therapeutic index (TI) CPX Vero (CPX Brighton [9]) | Therapeutic index (TI) VAC Vero (VAC Copenhagen [10]) | Therapeutic index (TI) VAR-GAR Vero [11] | Therapeutic index (TI) CPX LLC-MK2 (CPX Brighton [12]) | also measured
Nc1nccc2c1ncn2C1C=C(CO)C(O)C1O (single isomer, unassigned; (-)) [C3-Npc A, (−)-9-[trans-2′-trans-3′-dihydroxy-4′-hydroxymethyl-cyclopent-4′-enyl]-3-deazaadenine] | 10000 | modest protective effect | 3333 | 2000 | modest protective effect | 417 | 2000 | 213 | 2500 | 222 | 1.0 | 5000 | 2500 | 1.0 | IC50 ([1]; Vero, read-out: IC50 MPX Vero): 0.01 µg/mL (≈ 0.0381 µM); IC50 ([2]; Vero, read-out: IC50 VAR-BSH Vero): 0.03 µg/mL (≈ 0.114 µM); IC50 ([3]; LLC-MK2, read-out: IC50 MPX LLC-MK2): 0.05 µg/mL (≈ 0.191 µM); IC50 ([4]; LLC-MK2, read-out: IC50 VAR-YAM LLC-MK2): 0.24 µg/mL (≈ 0.915 µM); IC50 (VAC Copenhagen [5]; Orthopoxvirus vaccinia, LLC-MK2, read-out: IC50 VAC LLC-MK2): 0.05 µg/mL (≈ 0.191 µM); Cytotoxicity TC50 Vero (Vero cells; African green monkey): >100 µg/mL; IC50 ([6]; LLC-MK2, read-out: IC50 VAR-BSH LLC-MK2): 0.47 µg/mL (≈ 1.79 µM); IC50 ([7]; Vero, read-out: IC50 VAR-YAM Vero): 0.04 µg/mL (≈ 0.153 µM); Cytotoxicity TC50 LLC-MK2 (LLC-MK2 cells; rhesus monkey): >100 µg/mL; IC50 ([8]; LLC-MK2, read-out: IC50 VAR-GAR LLC-MK2): 0.45 µg/mL (≈ 1.72 µM); IC50 (CPX Brighton [9]; Vero, read-out: IC50 CPX Vero): > 100 µg/mL; IC50 (VAC Copenhagen [10]; Orthopoxvirus vaccinia, Vero, read-out: IC50 VAC Vero): 0.02 µg/mL (≈ 0.0763 µM); IC50 ([11]; Vero, read-out: IC50 VAR-GAR Vero): 0.04 µg/mL (≈ 0.153 µM); IC50 (CPX Brighton [12]; LLC-MK2, read-out: IC50 CPX LLC-MK2): > 100 µg/mL
Nc1nccc2c1ncn2[C@@H]1C[C@@H](CO)[C@H](O)[C@@H]1O [C-ca3-Ado, Carbocyclic 3-deazaadenosine] | 250 | modest protective effect | 83.3 | 125 | modest protective effect | 71.4 | 29.4 | 62.5 | 18.9 | 22.7 | 1.0 | 83.3 | 62.5 | 4.0 | IC50 MPX Vero [1]: 0.4 µg/mL (≈ 1.51 µM); IC50 VAR-BSH Vero [2]: 1.2 µg/mL (≈ 4.54 µM); IC50 MPX LLC-MK2 [3]: 0.8 µg/mL (≈ 3.03 µM); IC50 VAR-YAM LLC-MK2 [4]: 1.4 µg/mL (≈ 5.3 µM); IC50 VAC LLC-MK2 (VAC Copenhagen [5]): 3.4 µg/mL (≈ 12.9 µM); Cytotoxicity TC50 Vero (Vero cells): >100 µg/mL; IC50 VAR-BSH LLC-MK2 [6]: 1.6 µg/mL (≈ 6.05 µM); IC50 VAR-YAM Vero [7]: 5.3 µg/mL (≈ 20.1 µM); Cytotoxicity TC50 LLC-MK2 (LLC-MK2 cells): >100 µg/mL; IC50 VAR-GAR LLC-MK2 [8]: 4.4 µg/mL (≈ 16.6 µM); IC50 CPX Vero (CPX Brighton [9]): >100 µg/mL; IC50 VAC Vero (VAC Copenhagen [10]): 1.2 µg/mL (≈ 4.54 µM); IC50 VAR-GAR Vero [11]: 1.6 µg/mL (≈ 6.05 µM); IC50 CPX LLC-MK2 (CPX Brighton [12]): 25.2 µg/mL (≈ 95.4 µM)
